The text below walks through data of PMC6309520 (Cell chemical biology, 2018).

The test has as its target T1, ARH3 (ADP-ribosyl hydrolase 3, ADPRHL2) (Homo sapiens, UniProt Q9NX46).
T1 sequence (Q9NX46 1-363): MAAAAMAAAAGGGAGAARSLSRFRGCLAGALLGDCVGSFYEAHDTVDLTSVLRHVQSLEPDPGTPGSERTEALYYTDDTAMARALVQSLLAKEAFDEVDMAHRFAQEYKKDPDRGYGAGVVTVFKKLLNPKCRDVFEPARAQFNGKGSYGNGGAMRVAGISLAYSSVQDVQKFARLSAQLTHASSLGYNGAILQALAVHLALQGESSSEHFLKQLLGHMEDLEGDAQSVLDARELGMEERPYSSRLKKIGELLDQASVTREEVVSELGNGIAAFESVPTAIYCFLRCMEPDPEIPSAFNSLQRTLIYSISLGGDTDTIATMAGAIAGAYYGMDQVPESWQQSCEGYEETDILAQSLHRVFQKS
Nature of the test: Michaelis-Menten kinetics. It counts as biochemical.

The structures appear in SMILES notation.

Broadly, the Km is the concentration of substrate that gives half-maximal velocity. `O=c1cc(C(F)(F)F)c2ccc(O[C@H]3O[C@H](COP(=O)(O)OP(=O)(O)OC[C@H]4O[C@@H](n5cnc6c(=O)[nH]cnc65)[C@H](O)[C@@H]4O)[C@@H](O)[C@H]3O)cc2o1` [compound 12, TFMU-IDPr]: the Km turned out to be 312 ± 30 µM.
